Experimental data published in US20240247080A1, “GLP1/GIP/NPY2 RECEPTOR TRIPLE AGONISTS” (Boehringer Ingelheim International GmbH, priority 2022, published 2024).
pEC50: −log10 of the molar value. Where two headings read alike, the source gives them in different places. Starred links: 1 amine or outer side, 2 acyl side, 3 side chain; linkers in the order of their positions; H or OH if unused. Non-standard residues stand in square brackets, D forms with d. Groups on a side chain read outwards from the residue. *: point of attachment. C20 diacid = O=C(O)CCCCCCCCCCCCCCCCCCC(=O)*; C18 diacid = O=C(O)CCCCCCCCCCCCCCCCC(=O)*; γGlu = O=C(O)[C@H](CCC(=O)[*:2])N[*:1]; εLys = N[C@@H](CCCCN[*:1])C(=O)[*:2]; AEEA = NCCOCCOCC(=O)O; Aib = CC(C)(N)C(=O)O

Columns and labels:
Assay type in all cases: cell-based
Settings in all cases: CreLuc reporter gene assay
hGLP1R = biological target: T1, hGLP1R (Homo sapiens, UniProt P43220); assay: hGLP1R CreLuc reporter gene assay in 0.5% and 100% plasma
T1 construct: expressed in transfected cells; host or cells: HEK-293 cells carrying a CRE-luciferase reporter gene
Summary of the method: (§1)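 Agonist EC50s came from 8-concentration curves over four decades, fitted by non-linear variable-slope regression of CRE-driven luciferase luminescence. Cells were exposed 4 h at 37 °C, in buffer with 0.5% human plasma or in 100% plasma; GIPR was expressed in CHO cells, GLP-1R and NPY2R in HEK cells.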

hNPY2R = biological target: T2, hNPY2R (Homo sapiens, UniProt P49146); assay: hNPY2R CreLuc reporter gene assay in 0.5% and 100% plasma
T2 construct: expressed in transfected cells; host or cells: HEK-293 cells carrying a CRE-luciferase reporter gene
T2 sequence (P49146 1-381): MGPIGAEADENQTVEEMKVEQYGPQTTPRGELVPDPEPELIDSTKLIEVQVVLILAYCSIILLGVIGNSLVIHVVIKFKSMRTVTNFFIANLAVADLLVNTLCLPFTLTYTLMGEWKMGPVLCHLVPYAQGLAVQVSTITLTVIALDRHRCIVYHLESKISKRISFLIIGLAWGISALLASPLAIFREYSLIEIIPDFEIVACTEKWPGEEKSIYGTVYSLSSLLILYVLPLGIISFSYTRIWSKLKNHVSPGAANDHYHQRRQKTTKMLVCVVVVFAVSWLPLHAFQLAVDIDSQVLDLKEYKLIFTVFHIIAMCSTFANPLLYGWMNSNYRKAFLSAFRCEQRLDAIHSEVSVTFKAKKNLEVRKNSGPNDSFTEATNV
Summary of the method: as §1

hGIPR = biological target: T3, hGIPR (Homo sapiens, UniProt P48546); assay: hGIPR CreLuc reporter gene assay in 0.5% and 100% plasma
T3 construct: expressed in transfected cells; host or cells: CHO cells carrying a CRE-luciferase reporter gene
T3 sequence (P48546 22-466): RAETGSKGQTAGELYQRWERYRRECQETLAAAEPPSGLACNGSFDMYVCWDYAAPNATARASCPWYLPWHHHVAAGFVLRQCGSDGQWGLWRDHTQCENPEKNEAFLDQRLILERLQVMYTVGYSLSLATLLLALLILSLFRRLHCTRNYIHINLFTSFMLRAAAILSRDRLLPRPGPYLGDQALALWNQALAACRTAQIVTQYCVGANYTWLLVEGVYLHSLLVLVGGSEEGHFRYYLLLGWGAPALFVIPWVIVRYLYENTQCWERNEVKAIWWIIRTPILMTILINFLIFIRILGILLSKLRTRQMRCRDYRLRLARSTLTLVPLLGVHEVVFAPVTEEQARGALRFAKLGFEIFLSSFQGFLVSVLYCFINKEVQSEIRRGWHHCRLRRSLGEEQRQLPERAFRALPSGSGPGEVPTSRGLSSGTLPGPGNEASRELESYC
Summary of the method: as §1

[1] = 0.5% human plasma, read-out: hGLP1R 0.5% hP
[2] = 0.5% human plasma, read-out: hNPY2R 0.5% hP
[3] = 0.5% human plasma, read-out: hGIPR 0.5% hP
[4] = 100% human plasma, read-out: hGIPR 100% hP
[5] = 100% human plasma, read-out: hNPY2R 100% hP
[6] = 100% human plasma, read-out: hGLP1R 100% hP

T1 sequence (P43220 24-463): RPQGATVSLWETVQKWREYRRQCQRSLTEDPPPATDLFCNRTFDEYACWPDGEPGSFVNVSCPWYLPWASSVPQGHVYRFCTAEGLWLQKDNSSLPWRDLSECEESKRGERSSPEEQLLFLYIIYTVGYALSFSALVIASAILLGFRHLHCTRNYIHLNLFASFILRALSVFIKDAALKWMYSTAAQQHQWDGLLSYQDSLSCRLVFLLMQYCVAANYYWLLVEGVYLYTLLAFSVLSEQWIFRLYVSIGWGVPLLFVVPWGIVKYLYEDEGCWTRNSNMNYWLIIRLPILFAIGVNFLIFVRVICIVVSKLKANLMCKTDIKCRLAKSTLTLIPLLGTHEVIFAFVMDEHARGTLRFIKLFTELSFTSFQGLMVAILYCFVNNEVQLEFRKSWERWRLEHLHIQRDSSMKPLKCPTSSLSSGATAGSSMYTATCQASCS

Row | Substance | pEC50 (hGLP1R; [1]) | pEC50 (hNPY2R; [2]) | pEC50 (hGIPR; [3]) | pEC50 (hGIPR; [4]) | pEC50 (hNPY2R; [5]) | pEC50 (hGLP1R; [6])
1 | H-Y[Aib]EGTFTSDYSI[Aib]LEKQAQ[Aib]EFVQWLIK([εLys-γGlu-γGlu-γGlu-γGlu-γGlu-γGlu-γGlu-C20 diacid])GGPSSGASLRHYYNWLTRQRY-NH2 [Compound 43, Y-Aib-E-G-T-F-T-S-D-Y-S-I-Aib-L-E-K-Q-A-Q-Aib-E-F-V-Q-W-L-I-K(1,3)-GGPSSGASLRHYYNWLTRQRY-NH2.C20DA-gGlu-gGlu-gGlu-gGlu-gGlu-gGlu-gGlu-eLys(1,2)] | 9.39 | 7.88 | 9.19 | 8.71 | 7.68 | 
2 | H-Y[Aib]EGTFTSDYSI[Aib]LEKQAQ[Aib]AFVEWLIK([εLys-γGlu-γGlu-γGlu-γGlu-γGlu-γGlu-C20 diacid])GGPSSGASLRHYY[Aib]WLTRQRY-NH2 [Compound 213, Y-Aib-E-G-T-F-T-S-D-Y-S-I-Aib-L-E-K-Q-A-Q-Aib-A-F-V-E-W-L-I-K(1,3)-G-G-P-S-S-G-A-S-L-R-H-Y-Y-Aib-W-L-T-R-Q-R-Y-NH2.C20DA-gGlu-gGlu-gGlu-gGlu-gGlu-gGlu-eLys(1,2)] | 9.80 | < 7.00 | 9.47 | 8.82 | < 6.00 | 
3 | H-Y[Aib]EGTFTSDYSI[Aib]LERQAQ[Aib]AFVEWLIK([εLys-γGlu-γGlu-γGlu-γGlu-γGlu-γGlu-C20 diacid])GGPSSGASLRHYYNWLTRQRY-NH2 [Compound 131, Y-Aib-E-G-T-F-T-S-D-Y-S-I-Aib-L-E-R-Q-A-Q-Aib-A-F-V-E-W-L-I-K(1,3)-GGPSSGASLRHYYNWLTRQRY-NH2.C20DA-gGlu-gGlu-gGlu-gGlu-gGlu-gGlu-eLys(1,2)] | 9.96 | 7.74 | 9.46 | 8.53 |  | 
4 | H-Y[Aib]EGTFTSDYSI[Aib]LEKQAQ[Aib]AFVEWLIK([γGlu-γGlu-γGlu-γGlu-γGlu-C20 diacid])GGPSEGASLRHYYNWLTRQRY-NH2 [Compound 289, Y-Aib-E-G-T-F-T-S-D-Y-S-I-Aib-L-E-K-Q-A-Q-Aib-A-F-V-E-W-L-I-K(1,3)-GGPSEGASLRHYYNWLTRQRY-NH2.C20DA-gGlu-gGlu-gGlu-gGlu-gGlu(1,2)] | 9.85 | 7.96 | 9.15 | 8.76 | 7.25 | 
5 | H-Y[Aib]EGTFTSDYSI[Aib]LEKQAQ[Aib]AFVEWLIK([εLys-γGlu-γGlu-γGlu-γGlu-γGlu-γGlu-C20 diacid])GGPSEYVSLRHYYNWLTRQRY-NH2 [Compound 217, Y-Aib-E-G-T-F-T-S-D-Y-S-I-Aib-L-E-K-Q-A-Q-Aib-A-F-V-E-W-L-I-K(1,3)-GGPSEYVSLRHYYNWLTRQRY-NH2.C20DA-gGlu-gGlu-gGlu-gGlu-gGlu-gGlu-eLys(1,2)] |  | 7.73 | 9.13 |  |  | 7.76
6 | H-Y[Aib]EGTFTSDYSI[Aib]LEKQAQ[Aib]AFVEWLIK([εLys-γGlu-γGlu-γGlu-γGlu-γGlu-γGlu-C20 diacid])GGPSSGASLLHYYNWLTRQRY-NH2 [Compound 210, Y-Aib-E-G-T-F-T-S-D-Y-S-I-Aib-L-E-K-Q-A-Q-Aib-A-F-V-E-W-L-I-K(1,3)-GGPSSGASLLHYYNWLTRQRY-NH2.C20DA-gGlu-gGlu-gGlu-gGlu-gGlu-gGlu-eLys(1,2)] | 9.72 | 7.27 | 9.55 |  |  | 
7 | H-Y[Aib]EGTFTSDYSI[Aib]LEKQAQ[Aib]AFVEWLIK([AEEA-AEEA-γGlu-γGlu-γGlu-γGlu-C20 diacid])GGPSEPASLRHYYNWLTRQRY-NH2 [Compound 226, Y-Aib-E-G-T-F-T-S-D-Y-S-I-Aib-L-E-K-Q-A-Q-Aib-A-F-V-E-W-L-I-K(1,3)-GGPSEPASLRHYYNWLTRQRY-NH2.C20DA-gGlu-gGlu-gGlu-gGlu-OEG-OEG(1,2)] | 9.62 |  | 9.37 |  | 7.33 | 

The remaining substances from weak to strong by pEC50 (hGIPR; [3]), led by results:

Row | pEC50 (hGLP1R; [1]) | pEC50 (hNPY2R; [2]) | pEC50 (hGIPR; [3]) | pEC50 (hGIPR; [4]) | pEC50 (hNPY2R; [5]) | pEC50 (hGLP1R; [6]) | Substance
8 | 10.15 | 7.64 | 9.55 | 9.16 |  | 8.75 | H-Y[Aib]EGTFTSDYSI[Aib]LEKQAQ[Aib]AFVQWLIK([Glu-Glu-Glu-Glu-C18 diacid])GGPSEGASLRHYYNWLTRQRY-NH2 [Compound 281, Y-Aib-E-G-T-F-T-S-D-Y-S-I-Aib-L-E-K-Q-A-Q-Aib-A-F-V-Q-W-L-I-K(1,3)-GGPSEGASLRHYYNWLTRQRY-NH2.C18DA-E-E-E-E(1,2)]
9 | 9.60 | 7.56 | 9.57 |  | 7.31 | 8.05 | H-Y[Aib]EGTFTSDYSI[Aib]LEKQAQ[Aib]EFVEWLIK([AEEA-AEEA-γGlu-γGlu-γGlu-γGlu-C18 diacid])GGPSSPASLRHYYNWLTRQRY-NH2 [Compound 56, Y-Aib-E-G-T-F-T-S-D-Y-S-I-Aib-L-E-K-Q-A-Q-Aib-E-F-V-E-W-L-I-K(1,3)-GGPSSPASLRHYYNWLTRQRY-NH2.C18DA-gGlu-gGlu-gGlu-gGlu-OEG-OEG(1,2)]
10 | 9.55 | 8.10 | 9.59 | 8.80 | 7.57 |  | H-Y[Aib]EGTFTSDYSI[Aib]LEKQAQ[Aib]EFVQWLIK([AEEA-AEEA-γGlu-γGlu-γGlu-γGlu-γGlu-C20 diacid])GGPSSGASLRHYYNWLTRQRY-NH2 [Compound 36, Y-Aib-E-G-T-F-T-S-D-Y-S-I-Aib-L-E-K-Q-A-Q-Aib-E-F-V-Q-W-L-I-K(1,3)-GGPSSGASLRHYYNWLTRQRY-NH2.C20DA-gGlu-gGlu-gGlu-gGlu-gGlu-OEG-OEG(1,2)]
11 | 9.51 | 7.62 | 9.62 | 8.52 |  |  | H-Y[Aib]EGTFTSDYSI[Aib]LEKQAQ[Aib]AFVEWLIK([γGlu-γGlu-γGlu-γGlu-C18 diacid])GGPEEGASLRHYYNWLTRQRY-NH2 [Compound 272, Y-Aib-E-G-T-F-T-S-D-Y-S-I-Aib-L-E-K-Q-A-Q-Aib-A-F-V-E-W-L-I-K(1,3)-GGPEEGASLRHYYNWLTRQRY-NH2.C18DA-gGlu-gGlu-gGlu-gGlu(1,2)]
12 | 9.34 | 7.82 | 9.68 | 8.69 | 7.72 |  | H-Y[Aib]EGTFTSDYSI[Aib]LEKQAQ[Aib]AFVEWLIK([εLys-γGlu-γGlu-γGlu-γGlu-γGlu-γGlu-C20 diacid])GGPSSYVSIRHYYNWLTRQRY-NH2 [Compound 9, Y-Aib-E-G-T-F-T-S-D-Y-S-I-Aib-L-E-K-Q-A-Q-Aib-A-F-V-E-W-L-I-K(1,3)-GGPSSYVSIRHYYNWLTRQRY-NH2.C20DA-gGlu-gGlu-gGlu-gGlu-gGlu-gGlu-eLys(1,2)]
13 | 9.54 | 7.86 | 9.70 | 8.74 |  | 7.85 | H-Y[Aib]EGTFTSDYSI[Aib]LEKQAQ[Aib]EFVQWLIK([γGlu-γGlu-γGlu-γGlu-C20 diacid])GGPSEGASLRHYYNWLTRQRY-NH2 [Compound 194, Y-Aib-E-G-T-F-T-S-D-Y-S-I-Aib-L-E-K-Q-A-Q-Aib-E-F-V-Q-W-L-I-K(1,3)-GGPSEGASLRHYYNWLTRQRY-NH2.C20DA-gGlu-gGlu-gGlu-gGlu(1,2)]
14 | 9.89 | 7.93 | 9.92 |  |  |  | H-Y[Aib]EGTFTSDYSI[Aib]LEKQAQ[Aib]AFVEWLIK([εLys-γGlu-γGlu-γGlu-γGlu-γGlu-γGlu-C20 diacid])GGPSSYESLRHYYNWLTRQRY-NH2 [Compound 50, Y-Aib-E-G-T-F-T-S-D-Y-S-I-Aib-L-E-K-Q-A-Q-Aib-A-F-V-E-W-L-I-K(1,3)-GGPSSYESLRHYYNWLTRQRY-NH2.C20DA-gGlu-gGlu-gGlu-gGlu-gGlu-gGlu-eLys(1,2)]
15 | 10.15 |  | 10.15 | 9.17 | 7.45 |  | H-Y[Aib]EGTFTSDYSI[Aib]LEKQAQ[Aib]AFVEWLIK([εLys-γGlu-γGlu-γGlu-γGlu-γGlu-γGlu-C20 diacid])GGPSEPQSIRHYYNWLTRQRY-NH2 [Compound 48, Y-Aib-E-G-T-F-T-S-D-Y-S-I-Aib-L-E-K-Q-A-Q-Aib-A-F-V-E-W-L-I-K(1,3)-GGPSEPQSIRHYYNWLTRQRY-NH2.C20DA-gGlu-gGlu-gGlu-gGlu-gGlu-gGlu-eLys(1,2)]
